For assay [1], the target named is human inducible NOS (hiNOS) (Homo sapiens, UniProt P35228). In words: IC50 determination, hiNOS. Format: biochemical. The conditions noted are these: for isoform selectivity hiNOS/bNOS (in parentheses): ratio of IC50 hiNOS to IC50 bNOS WT. The protocol: (§1) Enzyme activity for bsNOS and bsNOS I218V was measured using the bBidomain constructs, as described previously,^4,14 with some minor alterations. Reactions with bsNOS and bsNOS I218V were run for 8 min, whereas those with hiNOS and heNOS were run for 4 min, as this allowed for adequate signal before complete substrate depletion. hiNOS and heNOS reactions also had calmodulin added at 10× the protein concentration. Inhibitors were tested from 5 μM to 800 μM. IC50 values were calculated as previously described.^9

Assay [2] relates to MRSA in infected macrophage cells. In words: Macrophage MRSA killing assay. Format: cell-based. The conditions noted are these: for MRSA killing activity in infected macrophage cells: FIG. 5; for MRSA killing activity compared with QJ13: FIG. 5B. The protocol:
Bone marrow was isolated, red blood cells lysed with ACK buffer (Gibco), and plated on non-tissue culture treated dishes (Fisher) in DMEM media (Hyclone) supplemented with 2 mM L-glutamine (Corning), 100 U/mL pen-strep (Hyclone), 10% fetal bovine serum (OmegaScientific), and 10% cell conditioned media from CMG14-12 cells as a source of CSF. Macrophages were isolated after 6 days of differentiation and stored frozen in liquid nitrogen. One day prior to assay, macrophages were thawed and plated in flat-bottomed 96-well culture plates (VWR) at 50-70,000 cells per well in antibiotic-free DMEM media supplemented with 10% fetal bovine serum and L-glutamine.
Bacteria and inhibitors or vehicle control were added to each well. The plate was spun down for 5 min, 1500 rpm, 25° C. to bring bacteria in contact with the macrophages. The plate was incubated for 1 h at 37° C. with 5% CO2. The plate was spun down for 5 min, 1500 rpm, 25° C. The supernatant was pipetted off and discarded. Cells were lysed with 2% Triton-X 100 for 15 min. MTT in LB (100 μL of 1 mg/mL) was added to each well and plates were incubated for 2 h at 37° C. MTT was solubilized in DMSO, and plates were read at 540 nm. Killing was normalized to untreated bacteria. Empty wells with known bacteria quantities were used as a positive control.

Assay [3] has as its target T1, bNOS (I218V) (Bacillus subtilis, UniProt O34453, I218V). Kind of assay: Imidazole displacement assay (spectral binding, Ks), bNOS I218V mutant. Also noted: made in house; host or cells: E. coli BL21 (DE3). Conditions: for decrease in inhibitor specificity between wild type (WT) and the I218V mutant (increase in KS): KS I218V versus KS WT. The protocol:
(§2) The KS value for each ligand was then calculated from KS,app as previously described,^4,14 using the KD of imidazole to bsNOS, bsNOS I218V, hiNOS, and heNOS and normalized to L-Arg.
Target sequence in this assay (O34453 whole entry I218V): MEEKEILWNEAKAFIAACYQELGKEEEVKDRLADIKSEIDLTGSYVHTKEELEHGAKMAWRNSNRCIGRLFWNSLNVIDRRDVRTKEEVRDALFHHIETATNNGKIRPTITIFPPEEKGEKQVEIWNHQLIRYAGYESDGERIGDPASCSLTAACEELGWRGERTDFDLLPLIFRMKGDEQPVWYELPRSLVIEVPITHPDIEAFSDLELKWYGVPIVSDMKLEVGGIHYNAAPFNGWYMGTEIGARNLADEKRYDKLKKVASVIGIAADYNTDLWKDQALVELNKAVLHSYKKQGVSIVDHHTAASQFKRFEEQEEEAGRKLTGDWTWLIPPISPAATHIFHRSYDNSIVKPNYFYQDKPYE

Assay [4] deals with T1, bNOS (I218V). Kind of assay: IC50 determination with bBidomain construct, bNOS I218V. Also noted: YKuN (fusion partner); made in house; host or cells: E. coli BL21 (DE3). Format: biochemical. The protocol: as §1
Target sequence in this assay (O34453 other isoform, or with tags, fused parts or gaps I218V): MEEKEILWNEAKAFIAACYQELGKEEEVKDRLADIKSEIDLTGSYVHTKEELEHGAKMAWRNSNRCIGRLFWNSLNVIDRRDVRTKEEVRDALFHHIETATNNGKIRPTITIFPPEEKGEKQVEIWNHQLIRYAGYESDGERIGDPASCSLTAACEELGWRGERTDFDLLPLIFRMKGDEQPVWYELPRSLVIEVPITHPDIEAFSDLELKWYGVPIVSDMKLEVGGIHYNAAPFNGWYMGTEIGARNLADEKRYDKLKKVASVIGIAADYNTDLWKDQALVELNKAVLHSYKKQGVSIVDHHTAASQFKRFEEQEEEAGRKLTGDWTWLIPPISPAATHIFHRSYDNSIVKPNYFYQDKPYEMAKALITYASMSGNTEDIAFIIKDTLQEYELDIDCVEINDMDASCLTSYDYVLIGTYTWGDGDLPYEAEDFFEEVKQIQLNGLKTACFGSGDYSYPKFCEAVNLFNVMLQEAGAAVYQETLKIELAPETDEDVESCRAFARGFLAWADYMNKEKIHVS
The target of assay [5] is T2, bNOS WT (bsNOS) (Bacillus subtilis, UniProt O34453). In words: Imidazole displacement assay (spectral binding, Ks), bNOS WT. The arrangement: made in house; host or cells: E. coli BL21 (DE3). The protocol:
as §2
Target sequence in this assay (O34453 whole entry): as the sequence (O34453 whole entry I218V) above, with V218I counted along it

Assay [6] concerns the target T2, bNOS WT (bsNOS). In words: IC50 determination with bBidomain construct, bNOS WT. Also noted: YKuN (fusion partner); made in house; host or cells: E. coli BL21 (DE3). Format: biochemical. The protocol: as §1
Target sequence in this assay (O34453 other isoform, or with tags, fused parts or gaps): as the sequence (O34453 other isoform, or with tags, fused parts or gaps I218V) above, with V218I counted along it
Assay [7] deals with human endothelial NOS (heNOS) (Homo sapiens, UniProt P29474). In words: IC50 determination, heNOS. Format: biochemical. The conditions noted are these: for isoform selectivity heNOS/bNOS (in parentheses): ratio of IC50 heNOS to IC50 bNOS WT. The protocol:
as §1

The target of the next assay is T3, human eNOS (heNOS) (Homo sapiens, UniProt P29474).
T3 construct: made in house; host or cells: Escherichia coli
In words: Hemoglobin NO capture assay, heNOS. Conditions: for Ki: from IC50 by Cheng-Prusoff, 10 μM L-Arg; for eNOS/nNOS selectivity: ratio of Ki heNOS to Ki hnNOS. Format: biochemical. The protocol:
(§3) The NOS inhibitory activity of the compounds was measured by the hemoglobin (Hb) NO capture assay following a protocol described previously.^1-2 The production of NO was monitored by a rapid oxidation of oxyhemoglobin (oxyHb) to methemoglobin (metHb) by NO.^1 Purified recombinant NOSs, human nNOS (hnNOS), and human eNOS (heNOS),^3 are used in all activity assays. They were expressed in Escherichia coli and purified as previously reported. In brief, the assay was performed in 100 mM HEPES (4-(2-hydroxyethyl)-1-piperazine-ethanesulfonic acid) buffer with 10% glycerol (pH 7.4-7.5) at 37° C. in the presence of 10 μM L-Arg, 10 μM H4B, 100 μM NADPH, 0.83 mM CaCl2), 320 units/mL calmodulin, and 3 μM human oxyhemoglobin. A concentration of L-Arg of 10 μM was used as it is sufficient not to cause NOS uncoupling and is close to the Km values of all three NOS isoforms where competitive inhibitors can be detected effectively. The assay was performed in 96-well plates using a Biotek Gen5 microplate reader. The NOS enzymes and hemoglobin were dispensed automatically by the plate reader. NO production was kinetically monitored at 401 nm for 6 min. The inhibition constants (Ki) for all NOSs were calculated from the IC50 values of the dose-response curves using the Cheng-Prusoff equation,^4
(§4) [formula] where Km is the Michaelis constant. […] The calculated standard deviations from dose-response curves of the assays were less than 10% with all NOSs.

The target in a further assay is T4, human nNOS (hnNOS) (Homo sapiens, UniProt P29475).
T4 construct: made in house; host or cells: Escherichia coli
In words: Hemoglobin NO capture assay, hnNOS. Format: biochemical. Conditions: from IC50 by Cheng-Prusoff, 10 μM L-Arg. The protocol:
as §3, §4

The target in the next assay is hiNOS (Homo sapiens, UniProt P35228). In words: Griess assay IC50, hiNOS. Format: biochemical. The conditions noted are these: IC50 value from Griess assay.

The record followed here is patent US12213973B2, “Bacterial nitric oxide synthase inhibitors” (Northwestern University, priority 2021, dated 2025).

The term IC50 denotes the concentration that gives 50% inhibition. Lower therefore signals greater potency. A word on the Kd: it is the concentration at which binding is half-saturated. Read a low Kd as a tighter complex. The term Ki denotes a measure of affinity in units of concentration, obtained from inhibition or displacement. Low values mean a stronger hold on the target, high ones a looser hold on the target.

Molecules are shown by their SMILES. “Also recorded” adds a separate entry of the source.

For `Nc1cccc(CNCCOc2cccc(OCc3ccc4ccc(N)nc4c3)c2)n1` [Compound 9, 7-((3-(2-(((6-aminopyridin-2-yl)methyl)amino)ethoxy)phenoxy)methyl)quinolin-2-amine], the half-maximal inhibitory concentration (IC50) is 350 µM in assay [1], 228 µM against bNOS (I218V) [4], 26.5 µM against bNOS WT (bsNOS) [6] and 493 µM in assay [7]. The “isoform selectivity hiNOS/bNOS (in parentheses)” value (“isoform selectivity hiNOS/bNOS” below) in assay [1] is reported as 13. In addition, the “MRSA killing activity in infected macrophage cells” value in [2] is on record as “exhibited killing activity”. Moreover, the “MRSA killing activity compared with QJ13” value in [2] is “superior MRSA killing activity”. Further, the MRSA killing result in [2] (at ~50 μM concentration) was “about 50%”. For the same molecule, the values for the Kd at bNOS (I218V) [3] and on bNOS WT (bsNOS) [5] were 24.6 µM and 2.25 µM, respectively. Besides, the “decrease in inhibitor specificity between wild type (WT) and the I218V mutant (increase in KS)” value at bNOS (I218V) [3] was determined as 11 fold. In [7], the “isoform selectivity heNOS/bNOS (in parentheses)” value (from here on “isoform selectivity heNOS/bNOS”) amounted to 19.
On to `Nc1cccc(CNCCOc2cccc(OCc3cccc(N)n3)c2)n1` [PW-III-25], for which, at human eNOS (heNOS), affinity was put at a Ki of 340 µM and the eNOS/nNOS selectivity was 102. The molecule further gave a Ki on human nNOS (hnNOS) of 3.3 µM.
Turning to `Nc1ccc2ccc(COc3cccc(CNCc4ccccn4)c3)cc2n1` [Compound 4, 7-((3-(((pyridin-2-ylmethyl)amino)methyl)phenoxy)methyl)quinolin-2-amine], the IC50 was determined as 143 µM in assay [1], 86 µM against bNOS (I218V) [4], 40 µM on bNOS WT (bsNOS) [6] and 475 µM in assay [7]. For the same molecule, the “isoform selectivity hiNOS/bNOS” value in [1] worked out at 4. The Kd at bNOS (I218V) [3] was 58.9 µM; at bNOS WT (bsNOS) [5], 32 µM. For the same molecule, in assay [7], the “isoform selectivity heNOS/bNOS” value was 12.
As to `Nc1cccc(CCc2cccc(OCc3ccc4ccc(N)nc4c3)c2)n1` [Compound 3, 7-((3-(2-(6-aminopyridin-2-yl)ethyl)phenoxy)methyl)quinolin-2-amine], the IC50 is 435 µM in assay [1], 31.2 µM against bNOS (I218V) [4], 23.1 µM against bNOS WT (bsNOS) [6] and over 500 µM in assay [7]. Besides, the “isoform selectivity hiNOS/bNOS” value in assay [1] stood at 19. In addition, the Kd at bNOS (I218V) [3] was 23.5 µM; on bNOS WT (bsNOS) [5] it was 29.9 µM.
For the molecule `COC(=O)[C@@H](N)CCCNC(=N)N[N+](=O)[O-]` [L-NAME, reference compound], in [2], the “MRSA killing activity in infected macrophage cells” value is “no effect”.
As to `Nc1cccc(CCCCNCc2cccc(OCc3ccc4ccc(N)nc4c3)c2)n1` [Compound 8, 7-((3-(((4-(6-aminopyridin-2-yl)butyl)amino)methyl)phenoxy)methyl)quinolin-2-amine], the IC50 in [1] was determined as 24 µM; against bNOS (I218V) [4], 9.2 µM; at bNOS WT (bsNOS) [6], 6.1 µM; in assay [7] it was 126 µM. Also, the “isoform selectivity hiNOS/bNOS” value in assay [1] was 4. In addition, the equilibrium dissociation constant (Kd) at bNOS (I218V) [3] and on bNOS WT (bsNOS) [5] was 6.3 µM each time. Moreover, the “isoform selectivity heNOS/bNOS” value in assay [7] stood at 21.
`Nc1cccc(CCCCNCc2cccc(OCc3ccc4ccc(N)nc4c3)c2)n1` [PW-I-103] yielded an IC50 against hiNOS of 24 µM. For the same molecule, at human eNOS (heNOS), the Ki is 1.96 µM and the eNOS/nNOS selectivity worked out at 51. At human nNOS (hnNOS), this molecule showed a Ki of 0.038 µM.
In the case of `Nc1ccc2ccc(COc3cccc(CNCCc4ccccn4)c3)cc2n1` [Compound 6, 7-((3-(((2-(pyridin-2-yl)ethyl)amino)methyl)phenoxy)methyl)quinolin-2-amine], the values for the IC50 (in [1]; at bNOS (I218V) [4]; on bNOS WT (bsNOS) [6]) were 396 µM, 63.8 µM and 21.6 µM, respectively. In addition, in [1], the “isoform selectivity hiNOS/bNOS” value was determined as 18. For the same molecule, the Kd at bNOS (I218V) [3] is 31.9 µM; at bNOS WT (bsNOS) [5] it was 22.6 µM.
With `Nc1cccc(CNCc2cccc(OCc3ccc4ccc(N)nc4c3)c2)n1` [Compound 5, 7-((3-((((6-aminopyridin-2-yl)methyl)amino)methyl)phenoxy)methyl)quinolin-2-amine], in assay [1], the IC50 is 318 µM and the “isoform selectivity hiNOS/bNOS” value was 11. Besides, in [2], the “MRSA killing activity in infected macrophage cells” value is “exhibited killing activity; also recorded: showed efficacy only at higher concentrations” and the “MRSA killing activity compared with QJ13” value is recorded as “superior killing activity”. On bNOS (I218V) [3], the Kd was 40 µM; the “decrease in inhibitor specificity between wild type (WT) and the I218V mutant (increase in KS)” value is 17 fold. Besides, the IC50 against bNOS (I218V) [4] amounted to 114 µM. The same molecule came in with a Kd on bNOS WT (bsNOS) [5] of 2.3 µM. On bNOS WT (bsNOS) [6], the IC50 was 28 µM. Besides, in assay [7], the IC50 was 307 µM and the “isoform selectivity heNOS/bNOS” value came to 11.
`Nc1ccc2ccc(COc3cccc(CNCc4ccccn4)c3)cc2n1` [PW-I-101] registered an IC50 against hiNOS of 143 µM. Further, at human eNOS (heNOS), the affinity, expressed as Ki, was 19.8 µM and the eNOS/nNOS selectivity was 900. At human nNOS (hnNOS), this molecule displayed a Ki of 0.022 µM.
